Test results: the supplement of paper PMC10307832

Tests used:
Experiment in all cases: relative viability (nuclei count vs DMSO), 5 days (fraction); higher = more cells survive
[1] = compound: O=C(C[C@H]1NCCC[C@@H]1O)Cn1cnc2cc(Br)c(Cl)cc2c1=O (racemic) [Halofuginone] + Nc1nc2[nH]cc(CCc3ccc(C(=O)N[C@@H](CCC(=O)O)C(=O)O)cc3)c2c(=O)[nH]1 [Pemetrexed] (partner 0.2 µM)
Method in brief: (§1)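 Lung cancer cell lines in 1536-well plates were dosed by pin tool the day after seeding, either with one drug alone or with a fixed anchor-drug dose plus five library-drug doses (not always all listed) in √10 steps. After 5 days, cells were fixed and their nuclei stained in one step (final 0.05% Triton X-100, 1% formaldehyde, 1 ug/ml Hoechst), then counted on 4× images. Relative viability is the nuclei count in treated wells divided by that in vehicle wells. Values are medians of duplicate plates.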

[2] = compound: O=C(C[C@H]1NCCC[C@@H]1O)Cn1cnc2cc(Br)c(Cl)cc2c1=O (racemic) [Halofuginone] + CC(=O)c1c(C)c2cnc(Nc3ccc(N4CCNCC4)cn3)nc2n(C2CCCC2)c1=O [Palbociclib] (partner 0.5 µM)
Method in brief: as §1

Cediranib + Dasatinib = compound: COc1cc2c(Oc3ccc4[nH]c(C)cc4c3F)ncnc2cc1OCCCN1CCCC1 [Cediranib] + Cc1nc(Nc2ncc(C(=O)Nc3c(C)cccc3Cl)s2)cc(N2CCN(CCO)CC2)n1 [Dasatinib] (partner 0.075 µM)
Method in brief: as §1

Cediranib + Bortezomib = compound: COc1cc2c(Oc3ccc4[nH]c(C)cc4c3F)ncnc2cc1OCCCN1CCCC1 [Cediranib] + CC(C)C[C@H](NC(=O)[C@H](Cc1ccccc1)NC(=O)c1cnccn1)B(O)O [Bortezomib] (partner 0.002 µM)
Method in brief: as §1

| Cell Line | relative viability ([1]; first compound 0.001 µM) | relative viability ([1]; first compound 0.003162 µM) | relative viability ([1]; first compound 0.01 µM) | relative viability ([1]; first compound 0.03162 µM) | relative viability ([1]; first compound 0.1 µM) | relative viability ([2]; first compound 0.001 µM) | relative viability ([2]; first compound 0.003162 µM) | relative viability ([2]; first compound 0.01 µM) | relative viability ([2]; first compound 0.03162 µM) | relative viability ([2]; first compound 0.1 µM) | relative viability (Cediranib + Dasatinib; first compound 0.04 µM) | relative viability (Cediranib + Dasatinib; first compound 0.1265 µM) | relative viability (Cediranib + Dasatinib; first compound 0.4 µM) | relative viability (Cediranib + Dasatinib; first compound 1.265 µM) | relative viability (Cediranib + Dasatinib; first compound 4 µM) | relative viability (Cediranib + Bortezomib; first compound 0.04 µM) | relative viability (Cediranib + Bortezomib; first compound 0.1265 µM) | relative viability (Cediranib + Bortezomib; first compound 0.4 µM) | relative viability (Cediranib + Bortezomib; first compound 1.265 µM) | relative viability (Cediranib + Bortezomib; first compound 4 µM) |
| --- | --- | --- | --- | --- | --- | --- | --- | --- | --- | --- | --- | --- | --- | --- | --- | --- | --- | --- | --- | --- |
| NCI-H460 | 0.0584 | 0.0659 | 0.0638 | 0.0536 | 0.0574 | 0.233 | 0.237 | 0.207 | 0.182 | 0.0284 | 0.51 | 0.634 | 0.466 | 0.459 | 0.562 | 1.06 | 1.23 | 1.01 | 0.987 | 1.39 |
| NCI-H838 | 0.266 | 0.256 | 0.249 | 0.189 | 0.128 | 0.234 | 0.25 | 0.199 | 0.171 | 0.0921 | 0.292 | 0.268 | 0.285 | 0.241 | 0.315 | 0.812 | 0.557 | 0.926 | 0.713 | 1.05 |
| NCI-H1792 | 0.922 | 0.813 | 0.53 | 0.891 | 0.391 | 0.613 | 0.704 | 0.666 | 0.662 | 0.585 | 0.823 | 0.872 | 0.557 | 0.923 | 0.957 | 1.07 | 1.14 | 0.953 | 0.955 | 0.762 |
| H3255 | 0.585 | 0.587 | 0.565 | 0.57 | 0.567 | 0.322 | 0.323 | 0.346 | 0.309 | 0.351 | 0.409 | – | 0.332 | 0.302 | 0.36 | 0.808 | 0.842 | 0.776 | 0.731 | 0.814 |
| EPLC-272H | 0.42 | 0.359 | 0.308 | 0.345 | 0.358 | 0.306 | 0.33 | 0.339 | 0.361 | 0.314 | 0.303 | – | 0.363 | – | 0.43 | 0.997 | – | 0.923 | 0.794 | 0.949 |
| NCI-H647 | 0.191 | 0.171 | 0.172 | 0.155 | 0.0946 | 0.413 | 0.399 | 0.422 | 0.287 | 0.105 | 0.215 | 0.177 | 0.102 | 0.22 | 0.224 | 1.1 | 1.02 | 0.845 | 0.728 | 1.16 |
| LXF-289 | 0.913 | 0.972 | 0.849 | 0.864 | 0.788 | 0.553 | 0.608 | 0.577 | 0.603 | 0.581 | 0.252 | 0.3 | 0.192 | 0.3 | 0.236 | 1.04 | 0.87 | 0.969 | 0.97 | 0.958 |
| NCI-H1650 | 0.339 | 0.388 | 0.375 | 0.325 | 0.284 | 0.265 | 0.303 | 0.323 | 0.323 | 0.173 | 0.343 | 0.384 | 0.328 | 0.37 | 0.299 | 0.201 | 0.169 | 0.205 | 0.223 | 0.194 |
